# Experimental data reported in patent US11213701B2, “Neuroprotective quinoline sulfonamides” (priority 2018, dated 2022).
# Key:
# [1] = test system: BGMK cells; assay: Rescue of BGMK cells from thapsigargin-induced cell death (CCK-8 cell viability); format: cell-based; details: for % BGMK Cell Viability after treatment in Presence of 10 μM compound: 2 hr pretreatment, TG 24 hrs, TG alone causes ~100% cell death
# From the text: Ability of compounds to rescue BGMK cells from thapsigargin-induced cell death. To assess an orthogonal cell line and further validate the ability of SUMOylation activators to rescue varied cell types, the compounds were also profiled for cytoprotection in BGMK cells. Again, we used the known ER stress-causing agent thapsigargin (TG) to model the compromised state in vitro. BGMKs were subcultured at 1.2×10^4 cells/ml. Wells treated with compound were done so for 2 hr. […] After treatment, all cells were washed and fed fresh DMEM complete media and CCK-8 development vehicle, incubated for 2 hr, and absorbance was measured to assess viability. Controls were DMSO (0% viability) and Salubrinal (47% viability).
# [2] = test system: SUMOylation of His-RanGap (SUMO-E1 (SAE), SUMO-E2 (UBC9), GST-SUMO); assay: HTRF assay measuring increase in SUMOylation of His-RanGap; format: biochemical; details: His-RanGap substrate; HTRF 665/620 ratio; 70 nl of 2 mM compound in DMSO per well; 30 min at room temperature; triplicate
# Procedure: Assay measuring increase in SUMOylation of His-RanGap. We utilized an HTRF assay containing SUMO-E1 (SAE), SUMO-E2 (UBC9), GST-SUMO and His-RanGap, a known SUMO substrate, as well as the respective fluorescent antibodies. The assay was run in 1536-well plate format and the selected activators were chosen based on their ability to increase the FRET signal over a baseline level. In 1536-well white plates, 2 μl of phosphate buffered saline (assay buffer) was dispensed into columns 1 and 2, and 2 μl of Mixture 1 (37.5 nM E1 and 100 nM His-RanGap-1) in assay buffer (50 mM Tris-HCl pH 7.4, 0.3 mM DTT, 10 mM MgCl2, 0.005% Tween-20), was dispensed into columns 3-48. Using a pintool, 70 nl of 2 mM compounds in DMSO was dispensed to columns 5-48 and 70 nl of DMSO was dispensed to columns 1-4. Using the Thermo Scientific MultiDrop Combi, 2 μL of Mixture 2 (20 mM ATP, 12.5 nM E2 and 30 nM GST-SUMO in buffer) was dispensed to all wells and incubated for 30 min. at room temperature followed by 1 μl of 500 mM KF. Plates were read on a PheraStar in a HTRF mode (Ex: 337 nm; Em: 620/665 nm). The ratio of fluorescence 665 over 620 was utilized as a readout of the assay. Increase in SUMOylation was calculated by comparison to baseline level. Measurements were done in triplicate.
# [3] = test system: CSM14.1 neuronal cells; assay: Rescue of CSM14.1 neurons from thapsigargin-induced cell death (ATPlite cell viability); format: cell-based, rat; details: 15 μM thapsigargin for 20 h after 2 h preincubation, TG alone causes ~100% cell death
# From the text: Ability of compounds to rescue CSM14.1 neurons from thapsigargin-induced cell death. To assess the ability of the compounds to rescue neurons from ER stress-induced cell death, the rat striatal neuroprogenitor cell line CSM14.1 was used. Endoplasmic reticulum (ER) stress has been established as the major cause of neuronal loss in stroke, ischemia, and neurodegeneration (Tajiri, S.; Oyadomari, S.; Yano, S.; Morioka, M.; Gotoh, T.; Hamada, J. I.; Ushio, Y.; Mori, M. Cell Death Differ. 2004, 11, 403-415; Kohno, K.; Higuchi, T.; Ohta, S.; Kumon, Y.; Sakaki, S. Neurosci. Lett. 1997, 224, 17-20; Iadecola, C.; Zhang, F.; Casey, R.; Nagayama, M.; Ross, M. E. J. Neurosci. 1997, 17, 9157-9164). Thus, we used the known ER stress-causing agent thapsigargin (TG) to model the compromised state in vitro. TG causes 100% cell death in most cases, and compounds were assessed for neuroprotection by measuring cell viability when dosed at 10 μM. CSM14.1 cells were recovered from cultures by trypsinization and plated in 96-well plates and incubated overnight at 32° C. 5 μl of test compound was added to achieve a final concentration of […]. Salubrinal and DMSO without compound were used as positive and negative controls, respectively. After 2 h of preincubation, TG-containing DMEM was added to give a final concentration of 15 μM and incubated for an additional 20 h. Cell viability was assessed by a cellular ATP content assay (ATPlite, PerkinElmer Life Sciences).
Structure (SMILES),% BGMK Cell Viability after treatment in Presence of 10 μM compound [1],% INCREASE IN SUMOylation over endogenous baseline level [2],% CSM14.1 Cell Viability after treatment with 15 μM TG in Presence of 10 μM compound [3],"BGMK cell viability (control) ([1]; positive control after thapsigargin injury, DMSO = 0% viability, control concentration not given) [%]"
"CC(=O)Nc1ccc(S(=O)(=O)Nc2cccc3cccnc23)cc1 [Compound A1, N-(4-(N-(Quinolin-8-yl)sulfamoyl)phenyl)acetamide]",C (C = 51%-60% viability),B (B = 21%-30% increase),B (B = 51%-60% viability),–
"O=S(=O)(Nc1cccc2cccnc12)c1ccc(S(=O)(=O)N2CCCC2)cc1 [Compound A2, 4-(Pyrrolidin-1-ylsulfonyl)-N-(quinolin-8-yl)benzenesulfonamide]",D (D = 61%-70% viability of BGMK cells),D (D = 40%-50% increase in SUMOylation over baseline levels),C (C = 61%-70% viability of CSM14.1 neurons),–
"O=S(=O)(Nc1cccc2cccnc12)c1ccccc1 [Compound A3, N-(Quinolin-8-yl)benzenesulfonamide]",A (A = 30%-40% viability),B (B = 21%-30% increase),A (A = 40%-50% viability),–
"COc1ccc(NS(=O)(=O)c2ccc3ccccc3c2)c2ncccc12 [Compound A4, N-(5-Methoxy-8-quinolinyl)-2-naphthalenesulfonamide]",–,C (C = 31%-40% increase),–,–
"O=[N+]([O-])c1ccccc1S(=O)(=O)Nc1cccc2cccnc12 [Compound A5, 2-Nitro-N-(8-quinolinyl)benzenesulfonamide]",–,C (C = 31%-40% increase),–,–
"Cc1ccc(S(=O)(=O)Nc2cccc3cccnc23)cc1 [Compound A6, 4-Methyl-N-(quinolin-8-yl)benzenesulfonamide]",C (C = 51%-60% viability),B (B = 21%-30% increase),C (C = 61%-70% viability of CSM14.1 neurons),–
"Cc1cc(C)n(-c2ccc3cccc(NS(C)(=O)=O)c3n2)n1 [Compound A7, N-[2-(3,5-Dimethyl-1H-pyrazol-1-yl)-8-quinolinyl]methanesulfonamide]",–,B (B = 21%-30% increase),–,–
"CS(=O)(=O)Nc1cccc2cccnc12 [Compound A8, N-(8-Quinolinyl)methanesulfonamide]",–,B (B = 21%-30% increase),–,–
"COc1cc(NS(=O)(=O)c2ccc3ccccc3c2)c2ncccc2c1 [Compound A9, N-(6-Methoxy-8-quinolinyl)-2-naphthalenesulfonamide]",–,B (B = 21%-30% increase),–,–
"COc1cc(NS(=O)(=O)c2ccc(C)cc2)c2ncccc2c1 [Compound A10, N-(6-Methoxy-8-quinolinyl)-4-methylbenzenesulfonamide]",–,C (C = 31%-40% increase),–,–
"O=C(/C=C/c1ccccc1)NC(NC(=S)Nc1cccc2cccnc12)C(Cl)(Cl)Cl (stereo not shown) [Salubrinal, reference compound]",–,–,–,47
